Experimental data: PubChem BioAssay (NCI)
Values joined by “and” are separate entries in the source; they are usually repeats but may differ in a detail not shown here. Identical values can stand only once.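 Tested at 5 concentrations; 48 h exposure; 96-well plates; endpoints linearly interpolated, else capped at highest concentration. Here, GI50 denotes the concentration required for 50% inhibition of growth. TGI: total growth inhibition.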

Columns and labels:
Test in all cases: NCI tumour cell line growth inhibition, 48 h
LOX IMVI melanoma = tested on: LOX IMVI melanoma
OVCAR-4 ovarian = tested on: OVCAR-4 ovarian
PC-3 prostate = tested on: PC-3 prostate
SNB-75 CNS = tested on: SNB-75 CNS
KM12 colon = tested on: KM12 colon
SF-295 CNS = tested on: SF-295 CNS
SF-539 CNS = tested on: SF-539 CNS
SK-MEL-2 melanoma = tested on: SK-MEL-2 melanoma
U251 CNS = tested on: U251 CNS
T-47D breast = tested on: T-47D breast

| Compound | GI50 (LOX IMVI melanoma) | TGI (LOX IMVI melanoma) [µM] | GI50 (OVCAR-4 ovarian) [µM] | TGI (OVCAR-4 ovarian) | GI50 (PC-3 prostate) [µM] | TGI (PC-3 prostate) [µM] | GI50 (SNB-75 CNS) | TGI (SNB-75 CNS) | TGI (KM12 colon) | TGI (SF-295 CNS) [µM] | TGI (SF-539 CNS) | TGI (SK-MEL-2 melanoma) | TGI (U251 CNS) | GI50 (KM12 colon) | GI50 (SF-295 CNS) | GI50 (SK-MEL-2 melanoma) [µM] | TGI (T-47D breast) [µM] | GI50 (SF-539 CNS) | GI50 (U251 CNS) [µM] |
| --- | --- | --- | --- | --- | --- | --- | --- | --- | --- | --- | --- | --- | --- | --- | --- | --- | --- | --- | --- |
| Nc1ncnc2c1ncn2C1OC(COS(N)(=O)=O)C(O)C1O (stereo not drawn) | 0.018 µM | 0.0382 | 0.00118 | 0.00718 µM and 0.0357 µM | 0.0243 | 0.0587 | 0.00255 µM and 0.0194 µM | 0.0083 µM and 0.0565 µM | – | – | – | – | – | – | – | – | – | – | – |
| CCC/C=C\C=C\C1(NS(=O)(=O)c2ccc(C)cc2)CCC(C(C)(C)C)CC1 (stereo not drawn) | – | – | – | 49.4 µM | – | – | – | 72.1 µM | 31.9 µM | 51.2 | > 100 µM | 29 µM | 25.9 µM | – | – | – | – | – | – |
| CCCCCCCCCC[C@@H](O)[C@@H]1CC[C@@H]([C@@H]2CC[C@@H]([C@@H](O)CCCCCCCCCC[C@H](O)CC3=CC(C)OC3=O)O2)O1 (stereo partly drawn) | 4.26 µM | – | – | > 51.4 µM | – | – | 6.08 µM | 8.58 µM and 18 µM | – | > 100 | 9.39 µM and 13.3 µM | 4.68 µM and 31.2 µM | > 46 µM | > 100 µM | 0.686 µM | 1.23 | 40.4 | – | – |
| CC1=CC(C)(c2c[nH]c3ccccc23)CC(C)(C)c2c1[nH]c1ccccc21 (stereo not drawn) | – | 31.5 | – | 27.7 µM | – | – | – | 67.4 µM | > 100 µM | 32.6 | > 100 µM | – | 32 µM | – | – | – | – | – | – |
| CN(C)CCC(/C=C/c1ccccc1)=N\Nc1ccc(Cl)c(Cl)c1 | – | 3.71 | – | 10.8 µM | – | – | – | 5.9 µM | 4.41 µM | 11.2 | 4.17 µM | 6.31 µM | 13.6 µM | – | – | – | – | – | – |
| COc1ccc(/C(C)=N/NC(=O)CSc2nc3ccccc3c(=O)n2CCc2ccc(S(N)(=O)=O)cc2)cc1 | – | – | 1.77 | 3.52 µM | 1.98 | 4.15 | 1.81 µM | 4.26 µM | 3.96 µM | 3.86 | 3.16 µM | 6.68 µM | – | 2.06 µM | 1.8 µM | 2.58 | – | 1.69 µM | – |
| O=[P+](O)c1ccccn1 | – | > 100 | – | > 100 µM | – | – | – | > 100 µM | > 100 µM | > 100 | > 100 µM | – | > 100 µM | – | – | – | – | – | – |
| C[C@H]1C/C=C/[C@H]2[C@@H]3O[C@]3(C)[C@@H](C)[C@H]3[C@H](Cc4ccccc4)NC(=O)[C@]32OC(=O)O/C=C/[C@@](C)(O)C1=O | < 0.01 µM and 0.025 µM | – | 0.396 | > 79.2 µM and 46.3 µM and > 250 µM | – | – | 0.025 µM | – | 125 µM and > 250 µM | – | – | 38.6 µM and 125 µM | 1.14 µM and 4.02 µM and 0.424 µM | 11.7 µM and 29.1 µM | 0.0484 µM and 0.025 µM | 34.2 | – | 0.0125 µM and 0.025 µM | 0.025 |
| C1OC1CN1CCN(CC2CO2)CC1 (stereo not drawn) | – | > 100 | – | > 100 µM | – | – | – | > 100 µM | > 100 µM | > 100 | > 100 µM | > 100 µM | > 100 µM | – | – | – | – | – | – |
| Nc1c(C(=O)Nc2ccccn2)sc2nc3c(cc12)C(O)CCC3 (stereo not drawn) | 3.09 µM | > 50 | > 50 | > 50 µM | 1.34 | > 50 | 1.66 µM | > 50 µM | > 50 µM | > 50 | > 50 µM | > 50 µM | > 50 µM | 1.95 µM | 1.74 µM | 1.34 | – | 1.47 µM | 1.87 |
| CCOC(=O)C(=O)Nc1cc(Cl)c(Cl)cc1Cl | – | > 100 | – | > 100 µM | – | – | – | > 100 µM | > 100 µM | > 100 | > 100 µM | > 100 µM | > 100 µM | – | – | – | – | – | – |
| CCOC(=O)C1C=C2O[C@@H]3OC4(CCCCC4)O[C@@H]3C2C2C(=O)CCC(=O)[C@@]12C(=O)OC (stereo partly drawn) | – | > 100 | – | > 100 µM | – | – | – | > 100 µM | > 100 µM | > 100 | – | > 100 µM | > 100 µM | – | – | – | – | – | – |
| O=c1c2cc(Br)cc(Br)c2nc(CCCl)n1-c1ccc(O)c([N+](=O)[O-])c1 | – | – | – | 29 µM | – | – | – | 39.2 µM | 33.7 µM | 45 | 37.1 µM | 34.6 µM | 32.9 µM | – | – | – | – | – | – |
| Cc1cccc(C)c1NC(=O)CCc1nnc2s/c(=C\c3ccc(N(C)C)cc3)c(=O)n12 | – | > 100 | – | > 100 µM | – | – | – | > 100 µM | > 100 µM | > 100 | > 100 µM | > 100 µM | > 100 µM | – | – | – | – | – | – |
| CCCCC(C)/C=C/C(=O)C1=C(O)/C(=C/C(=O)O)OC1=O (stereo not drawn) | – | > 100 | – | > 100 µM | – | – | – | > 100 µM | > 100 µM | > 100 | > 100 µM | > 100 µM | > 100 µM | – | – | – | – | – | – |
| C[P+](C)(C)C | – | > 100 | – | > 100 µM | – | – | – | > 100 µM | > 100 µM | > 100 | > 100 µM | > 100 µM | > 100 µM | – | – | – | – | – | – |
| Nc1ccc(-c2cc(C(=O)Nc3nccs3)[nH]c(=S)n2)cc1 | – | > 100 | – | > 100 µM | – | – | – | > 100 µM | > 100 µM | – | > 100 µM | > 100 µM | > 100 µM | – | – | – | – | – | – |
| S=c1o[nH]c(-c2ccccc2)c1C=Nc1ccccc1 | – | > 100 | – | > 100 µM | – | – | – | > 100 µM | > 100 µM | > 100 | > 100 µM | > 100 µM | > 100 µM | – | – | – | – | – | – |
| CC1(C)CCCC2(C)C3C(O)CC2(C)C(O)C31 (stereo not drawn) | – | > 100 | – | > 100 µM | – | – | – | > 100 µM | > 100 µM | > 100 | > 100 µM | > 100 µM | > 100 µM | – | – | – | – | – | – |
| CCc1cccc(C(C)C)c1NC(=O)CCl | – | > 100 | – | – | – | – | – | > 100 µM | > 100 µM | > 100 | > 100 µM | > 100 µM | > 100 µM | – | – | – | – | – | – |
| Cc1ccccc1NC(=O)/C=N/O | – | > 100 | – | > 100 µM | – | – | – | > 100 µM | > 100 µM | > 100 | – | > 100 µM | > 100 µM | – | – | – | – | – | – |
| O=C1/C(=C/c2ccc3c(c2)OCCO3)CCC/C1=C\c1ccc2c(c1)OCCO2 | – | > 100 | – | 61 µM | – | – | – | 66.9 µM | 62.1 µM | 57.3 | 38.6 µM | – | 36.7 µM | – | – | – | – | – | – |
| OB(O)c1ccccc1C#Cc1ccccc1B(O)O | – | 51.1 | – | – | – | > 100 | – | > 100 µM | 49 µM | 75.9 | 44.9 µM | 34.7 µM | 78.3 µM | – | – | – | 83.6 | – | – |
| Cc1cccc(C)c1NC(=O)CCC/C(CC(=O)c1ccc(F)cc1)=N\NC(=O)C(=O)NN | – | > 100 | – | > 100 µM | – | – | – | > 100 µM | > 100 µM | > 100 | > 100 µM | > 100 µM | > 100 µM | – | – | – | – | – | – |
